# Test results from patent publication US11000635B2, “Antimicrobial compositions comprising minocycline and oxidized cellulose” (priority 2017, dated 2021).
# Entries after “also recorded” stand apart in the source; their conditions may differ.
# Legend:
# [1] = system: Staphylococcus aureus (S. aureus), Strain #6538; experiment: Primary stage MIC measurement of antibiotic alone (2-fold dilutions, OD 600 nm growth curves); format: cell-based; details: for MIC: Staphylococcus aureus, read-out: MIC values for S. aureus found in the present study (in-house primary MIC)
# Description: An isolated colony of S. aureus bacteria was picked from afresh streak plate (no more than 1 week old). The colony was transferred into 3-4 ml of TSB and incubated overnight in an orbital shaker at 35° C.-37° C.
# The following day, the turbidity of the actively-growing broth culture was adjusted with Calcium-adjusted Mueller Hinton broth II (MHBII) to be equivalent to that of a 0.5 McFarland standard (1×10^8 CFU/ml). The broth culture was maintained under ambient conditions prior to use.
# No more than 15 minutes prior to use, the culture was further diluted 20 fold in MHBII to obtain a final 5×10^6 CFU/ml stock suspension.
# The method used in this stage was based on the classic Minimum Inhibitory Concentration (MIC) measurements, as described by the Clinical and Laboratory Standards Institute (CLSI) document M07-A9: “Method for Dilution Antimicrobial Susceptibility Test for Bacteria that Grow Aerobically”. While classic MIC measurements require visual inspection of plates for bacterial growth after 18 hours, growth was monitored in the present study according to optical density (OD) at 600 nm, using an ELISA reader (MultiSkan™ FC ELISA reader, Thermo Fisher Scientific, Massachusetts, USA), thereby obtaining bacterial growth curves for tested antibiotic solutions.
# A 96-well assay plate layout (Corning Cat #3596) was prepared as follows:
# Columns 1 and 3-12: 100 μl of MHBII alone was added to each well.
# […]: 200 μl of a solution of antibiotic in MHBII at the highest concentration to be tested was added to each well.
# A series of 2-fold dilutions was performed, wherein 100 μl of solution of antibiotic was withdrawn from each well of column 2, transferred to the corresponding well of column 3, and mixed.
# The dilution was then repeated by transfer from column 3 to column 4, and so on, until column 11, when the 100 μl of solution of antibiotic withdrawn from each well of column 11 was discarded.
# The plate was then incubated at 37° C. with shaking in the ELISA reader and the optical density at 600 nm was read every 20 minutes for a total of 18 hours.
# The average OD reading obtained for each antibiotic concentration was calculated and plotted against time to obtain a growth curve.
# The MIC was determined as the first antibiotic concentration at which […] by the end of the 18-hour period.
# [2] = system: S. aureus; experiment: Tertiary stage: antimicrobial activity of antibiotic-impregnated ORC extracts (ET50, MIC); format: cell-based, Staphylococcus aureus; details: for Antibiotic-impregnated ORC (tertiary) MIC: single antibiotic impregnated onto ORC pad; for Result (ET50): ORC pad
# Description: The maximum OD is determined by bacterial growth in MHBII without the chemical.
# Solutions comprising different concentrations of antibiotics to be tested were prepared in methanol.
# Blank ORC pads of dimensions 1×1.5 inch, weighing between 65-75 mg (70 mg on average), in duplicate, were immersed in the antibiotic solutions and then dried using a rotary evaporator to provide “antibiotic-impregnated ORC pads”.
# 15 ml test tubes containing 3 ml of sterile PBS were prepared, and the antibiotic-impregnated ORC pads were immersed in the tubes and incubated for 3-5 hours at ambient temperature on a roller mixer (Stuart, Cat #SRT9D).
# Each of the above extracts was filtered out using a sterile 0.8/0.2 μm syringe filter into a clean 15 ml tube. These extraction fluids are referred to herein as “antibiotic-impregnated ORC extracts”.
# Briefly, ORC patches weighing on average 70 mg each were impregnated with the selected antibiotic. Antibiotic-impregnated ORC extracts were prepared by immersion and incubation in 3 ml of sterile PBS for 3 hours at ambient temperature. The ORC was then removed and any remaining ORC particles were filtered out using a […] syringe filter. This extraction fluid was then diluted 10-fold into Muller Hinton growth medium containing bacteria. Bacterial growth was monitored every 20 min for a total of 18 hours according to optical density (OD) at 600 nm, using an ELISA reader.
# Since the study included many possible combinations of two antibiotics, each with their own different concentration range, a matrix of possible antibiotic concentrations was designed, and ORC pads prepared accordingly (see Table 10). Since all the possible combinations could not be fitted into one 96 well plate, a series of MIC experiments were carried out.
# [3] = system: Staphylococcus aureus (S. aureus), Strain #6538; experiment: Secondary stage: antibiotic alone or blank ORC extracted in antibiotic, bacterial growth curves (ET50); format: cell-based; details: presence of ORC pads (not impregnated), read-out: MIC upon addition of a small amount of ORC to the growth medium
# [4] = system: Staphylococcus aureus (S. aureus), Strain #6538; experiment: as above; format: cell-based; details: antibiotic solution with versus without ORC
# Description: Blank ORC pads i.e. ORC pads which had not been impregnated with antibiotic (referred to herein as “blank ORC pads”), were subjected to extraction in a solution of antibiotic in PBS for three hours at ambient temperature.
# Due to the acidity of ORC, which provides some antibiotic effect, the size of the pad used was small i.e. approximately 1×1.5 inch, weighing between 65-75 mg (70 mg on average) in order to prevent the ORC from affecting the final pH of the assay and therefore the growth of the bacteria.
# 15 ml tubes, each containing 3 ml of an antibiotic solution at a known concentration in sterile PBS, were prepared in duplicate. […]
# The plate was incubated at 37° C. with shaking in the ELISA reader and the optical density at 600 nm was read every 20 minutes for a total of 18 hours.
# The average and standard deviation for OD readings was calculated for each time point of the wells using Excel. […]
# The average values were also entered into the GraphPad Prism program (GraphPad Software Inc., CA, USA) in order to calculate the Effective Time 50 (ET50) i.e. the time, in minutes, required for the antibiotic to induce a response halfway between the baseline and maximum, where the maximum is the bacterial growth in MHBII with PBS. This provides a quantifiable measure of the efficacy of the antibiotics tested and enables comparison of the various samples tested. […]
# [5] = system: S. aureus; details: published values; cited from earlier work
compound,measurement,setting,value
"CCC[C@@H]1C[C@@H](C(=O)N[C@@H]([C@H]2O[C@H](SC)[C@H](O)[C@@H](O)[C@H]2O)[C@H](C)Cl)N(C)C1 [Clindamycin, clindamycin]",MIC as single antibiotic in the absence of ORC (first stage MIC results),[1],0.062 µg/mL
same,MIC,[1]; absence of ORC,0.062 µg/mL
same,Antibiotic-impregnated ORC (tertiary) MIC,[2],0.015 µg/mL
"CN(C)c1ccc(O)c2c1C[C@H]1C[C@H]3[C@H](N(C)C)C(O)=C(C(N)=O)C(=O)[C@@]3(O)C(O)=C1C2=O [Minocycline, minocycline]",MIC as single antibiotic in the absence of ORC (first stage MIC results),[1],0.25 µg/mL
same,MIC,[1]; absence of ORC,0.25 µg/mL
same,Result (ET50),[2]; 0.54 μg Minocycline + 0.00 μg Clindamycin per gr ORC,637.6 min
same,Result (ET50),[2]; 0.54 μg Minocycline + 0.00 μg Rifampin per gr ORC,585.4 min
same,Result (ET50),[2]; 1.08 μg Minocycline + 0.00 μg Clindamycin per gr ORC,1072 min
same,Result (ET50),[2]; 1.08 μg Minocycline + 0.00 μg Rifampin per gr ORC,799.9 min
same,Result (ET50),[2]; 2.16 μg Minocycline + 0.00 μg Clindamycin per gr ORC,>2000 min
same,Result (ET50),[2]; 2.16 μg Minocycline + 0.00 μg Rifampin per gr ORC,>2000 min
same,Result (ET50),[2]; 2.70 μg Minocycline + 0.00 μg Clindamycin per gr ORC,>2000 min
same,Result (ET50),[2]; 2.70 μg Minocycline + 0.00 μg Rifampin per gr ORC,>2000 min
same,MIC,"[2]; Staphylococcus aureus, single antibiotic impregnated onto ORC, read-out: MIC of minocycline together with ORC, ORC impregnated with minocycline",0.0126 µg/mL
same,Minocycline concentration sufficient for growth inhibition of S. aureus in combination,[2]; impregnated onto ORC together with rifampin or clindamycin,1.26 ng/mL
same,Antibiotic-impregnated ORC (tertiary) MIC,[2],0.0126 µg/mL
same,Fold reduction of the MIC when impregnated onto ORC in combination with an additional antibiotic,[2]; versus single antibiotic in the absence of ORC (first stage MIC),200
same,MIC,[3],0.05 µg/mL
"CO[C@H]1/C=C/O[C@@]2(C)Oc3c(C)c(O)c4c(O)c(c(/C=N/N5CCN(C)CC5)c(O)c4c3C2=O)NC(=O)/C(C)=C\C=C\[C@H](C)[C@H](O)[C@@H](C)[C@@H](O)[C@@H](C)[C@H](OC(C)=O)[C@@H]1C [Rifampin, rifampin]",MIC as single antibiotic in the absence of ORC (first stage MIC results),[1],0.015 µg/mL
same,MIC,[1]; absence of ORC,0.015 µg/mL
same,Effect of addition of ORC on the antibiotic activity,[4],ORC interferes with the antibiotic activity of rifampin; also recorded: impaired by ORC and MIC was increased
same,Result (ET50),[2]; 0.00 μg Minocycline + 31.41 μg Rifampin per gr ORC,406.8 min
same,Result (ET50),[2]; 0.00 μg Minocycline + 62.82 μg Rifampin per gr ORC,442.3 min
same,Result (ET50),[2]; 0.00 μg Minocycline + 125.64 μg Rifampin per gr ORC,450.4 min
same,Result (ET50),[2]; 0.00 μg Minocycline + 157.05 μg Rifampin per gr ORC,418.1 min
same,Rifampin concentration sufficient for growth inhibition of S. aureus in combination,[2]; impregnated onto ORC together with 1.26 ng/ml minocycline,366.5 ng/mL
same,Antibiotic-impregnated ORC (tertiary) MIC,[2],0.733 µg/mL
same,Change of antimicrobial activity when impregnated onto the ORC pad,[2]; versus first stage MIC,activity was impaired
same,MIC values for S. aureus according to CLSI,[5],0.004 to 0.015 µg/mL
Gentamycin [Gentamicin],MIC values for S. aureus found in the present study (in-house primary MIC),[1]; absence of ORC,0.25 µg/mL
same,Effect of addition of ORC on the antibiotic activity,[4],decreased antibiotic activity; also recorded: impaired by ORC and MIC was increased
same,MIC values for S. aureus according to CLSI,[5],0.12 to 1 µg/mL
